Results reported in ChEMBL document CHEMBL4354872, “Use of Non-Natural Amino Acids for the Design and Synthesis of a Selective, Cell-Permeable MALT1 Activity-Based Probe” (J Med Chem, 2020).
Activity calls are given as the source filed them. The calls are words filed in the database; no cut-off is given here.

Experiments:
[1] = molecular target: T1, Mucosa-associated lymphoid tissue lymphoma translocation protein 1 (Homo sapiens) (UniProt Q9UDY8); test: Inhibition of […] wild type human N-terminal GST-tagged MALT1 catalytic domain (325 to 760 residues) expressed in Escherichia coli BL21 (DE3) assessed as inactivation rate constant using Ac-LVPipR-ACC as substrate measured after 2 hrs by microplate reader assay
T1 sequence (whole entry): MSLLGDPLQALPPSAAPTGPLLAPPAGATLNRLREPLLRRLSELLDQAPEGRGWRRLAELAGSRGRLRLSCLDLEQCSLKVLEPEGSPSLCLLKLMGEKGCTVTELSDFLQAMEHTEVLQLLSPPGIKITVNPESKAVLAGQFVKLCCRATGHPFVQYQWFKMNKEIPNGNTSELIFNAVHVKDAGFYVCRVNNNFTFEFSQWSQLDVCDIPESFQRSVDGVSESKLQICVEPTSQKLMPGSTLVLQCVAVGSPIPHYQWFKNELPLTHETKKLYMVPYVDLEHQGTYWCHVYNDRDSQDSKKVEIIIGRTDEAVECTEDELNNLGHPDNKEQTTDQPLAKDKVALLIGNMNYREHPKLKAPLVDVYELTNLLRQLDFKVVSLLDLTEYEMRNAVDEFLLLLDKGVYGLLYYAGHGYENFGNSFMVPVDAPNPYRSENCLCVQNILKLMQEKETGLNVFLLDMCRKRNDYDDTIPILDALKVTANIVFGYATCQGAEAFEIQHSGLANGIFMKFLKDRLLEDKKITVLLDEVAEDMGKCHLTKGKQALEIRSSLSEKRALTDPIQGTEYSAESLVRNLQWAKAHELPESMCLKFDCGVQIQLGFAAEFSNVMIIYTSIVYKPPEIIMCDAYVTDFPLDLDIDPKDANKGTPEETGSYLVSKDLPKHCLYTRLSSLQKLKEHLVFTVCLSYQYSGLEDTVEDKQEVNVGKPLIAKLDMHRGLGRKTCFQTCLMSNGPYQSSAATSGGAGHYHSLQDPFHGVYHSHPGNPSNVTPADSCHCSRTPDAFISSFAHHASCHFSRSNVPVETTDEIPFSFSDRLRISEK

Homo sapiens = species: Homo sapiens; test: Covalent binding affinity to MALT1 C453/A mutant (unknown origin) assessed as PMA/ionomycin stimulated ABP labeling of MALT1 by measuring cleavage of CYLD substrate using CYLD as substrate at 3 uM pretreated with PMA/ionomycin for 30 mins followed by compound treatment and further incubated for 3 hrs by Western blot analysis
Cathepsin B [2] = molecular target: T2, Cathepsin B (Homo sapiens, UniProt P07858); test: Inhibition of recombinant human cathepsin B expressed in Escherichia coli BL21 (DE3) assessed as increase in fluorescence at 0.5 uL using zRR-AMC as substrate measured after 60 to 80 mins by fluorescence plate reader assay relative to Z-VRPR-FMK
[3] = molecular target: T1, Mucosa-associated lymphoid tissue lymphoma translocation protein 1 (Homo sapiens); test: Binding affinity to MALT1 in human Jurkat cells assessed as ABP labeling of protein at 3 uM pretreated with compound for 3 hrs followed by PMA/ionomycin stimulation for 30 mins by laser imaging analysis; type: cell-based
[4] = molecular target: T3, Mucosa-associated lymphoid tissue lymphoma translocation protein 1 (Homo sapiens, UniProt Q9UDY8); test: Inhibition of […] wild type human N-terminal GST-tagged MALT1 catalytic domain (325 to 760 residues) expressed in Escherichia coli BL21 (DE3) using Ac-LVPipR-ACC as substrate measured after 2 hrs by microplate reader assay
T3 sequence (Q9UDY8 whole entry): T1 sequence (whole entry)

Cathepsin B [5] = molecular target: T2, Cathepsin B; test: Inhibition of recombinant human cathepsin B expressed in Escherichia coli BL21 (DE3) assessed as increase in fluorescence at 0.5 uL using zRR-AMC as substrate measured after 60 to 80 mins by fluorescence plate reader assay
[6] = molecular target: T1, Mucosa-associated lymphoid tissue lymphoma translocation protein 1 (Homo sapiens); test: Covalent binding affinity to MALT1 in wild type human Jurkat cell lysate assessed as PMA/ionomycin stimulated ABP labeling by protein-compound adduct formation at 3 uM pretreated with PMA/ionomycin for 30 mins followed by compound treatment after 3 hrs by laser imaging analysis; type: subcellular
[7] = molecular target: T1, Mucosa-associated lymphoid tissue lymphoma translocation protein 1 (Homo sapiens); test: Inhibition of full length wild type human N-terminal GST-tagged MALT1 catalytic domain (325 to 760 residues) expressed in Escherichia coli BL21 (DE3) assessed as increase in fluorescence at 0.5 uL using Ac-LRSR-AMC as substrate preincubated for 20 mins followed by substrate addition measured after 60 to 120 mins by fluorescence plate reader assay
[8] = molecular target: T1, Mucosa-associated lymphoid tissue lymphoma translocation protein 1 (Homo sapiens); test: Covalent binding affinity to Streptag2-tagged MALT1 stably reconstituted in human knockout Jurkat cells assessed as PMA/ionomycin stimulated ABP labeling of MALT1 by measuring cleavage of CYLD substrate using CYLD as substrate at 3 uM pretreated for PMA/ionomycin with 30 mins followed by compound treatment and further incubated for 3 hrs by Western blot analysis; type: cell-based
Cathepsin B [9] = molecular target: T2, Cathepsin B; test: Binding affinity to cathepsin B in human Jurkat cells assessed as ABP labeling of protein at 3 uM pretreated with compound for 3 hrs followed by PMA/ionomycin stimulation for 30 mins by laser imaging analysis; type: cell-based
Cathepsin B [10] = molecular target: T2, Cathepsin B; test: Covalent binding affinity to cathepsin B in wild type human Jurkat cell lysate assessed as ABP labeling by protein-compound adduct formation at 3 uM after 3 hrs by laser imaging analysis; type: subcellular
Cathepsin B [11] = molecular target: T2, Cathepsin B; test: Inhibition of recombinant human cathepsin B expressed in Escherichia coli BL21 (DE3) using zRR-AMC as substrate measured after 2 hrs by fluorescence plate reader assay
[12] = molecular target: T1, Mucosa-associated lymphoid tissue lymphoma translocation protein 1 (Homo sapiens); test: Inhibition of MALT1 in human HBL1 assessed as assessed as reduction in Relb substrate cleavage after 5 hrs in presence of proteasome inhibitor by Western blot analysis
Cathepsin B [13] = molecular target: T2, Cathepsin B; test: Inhibition of recombinant human cathepsin B expressed in Escherichia coli BL21 (DE3) assessed as inactivation rate constant using zRR-AMC as substrate measured after 2 hrs by fluorescence plate reader assay
[14] = molecular target: T1, Mucosa-associated lymphoid tissue lymphoma translocation protein 1 (Homo sapiens); test: Inhibition of MALT1 in human HBL1 assessed as assessed as reduction in Relb substrate cleavage at 3 to 30 uM after 5 hrs in presence of proteasome inhibitor by Western blot analysis
[15] = molecular target: T1, Mucosa-associated lymphoid tissue lymphoma translocation protein 1 (Homo sapiens); test: (§1) Competitive binding affinity to MALT1 in wild type human Jurkat cell lysate assessed as PMA/ionomycin stimulated ABP labeling by protein-compound adduct formation at 3 uM pretreated with 25 uM of MALT1 inhibitor s-mepazine for 2 hrs followed by PMA/ionomycin stimulation for 30 mins and subsequent compound addition measured after 3 hrs by Western blot analysis; type: subcellular
Cathepsin B [16] = molecular target: T2, Cathepsin B; test: as §1, with “to cathepsin B” for “to MALT1”, “inhibitor z-VRPR-FMK” for “inhibitor s-mepazine”; type: subcellular
Cathepsin B [17] = molecular target: T2, Cathepsin B; test: as §1, with “to cathepsin B” for “to MALT1”, “with 5” for “with 25”, “inhibitor CA-074ME” for “inhibitor s-mepazine”; type: subcellular
[18] = molecular target: T1, Mucosa-associated lymphoid tissue lymphoma translocation protein 1 (Homo sapiens); test: as §1, with “z-VRPR-FMK” for “s-mepazine”; type: subcellular

Compound	Kinact [1] [×10⁻³ /s]	Activity (Homo sapiens)	fold change (FC) (Cathepsin B [2])	Activity [3]	Ki [4] [nM]	inhibition (Cathepsin B [5])	Activity [6]	inhibition [7]	Activity [8]	Activity (Cathepsin B [9])	Activity (Cathepsin B [10])	Ki (Cathepsin B [11]) [nM]	inhibition [12]	Kinact (Cathepsin B [13]) [×10⁻³ /s]	inhibition [14]	Activity [15]	Activity (Cathepsin B [16])	Activity (Cathepsin B [17])	Activity [18]
CC1=CC(C)=[N+]2C1=C(CCCc1cn(CCCCCC(=O)N[C@@H](CC(C)C)C(=O)N[C@H](C(=O)N3CCCC[C@H]3C(=O)N[C@@H](CCCNC(=N)N)C(=O)COC(=O)c3c(C)cccc3C)C(C)C)nn1)c1c(C)cc(C)n1[B-]2(F)F	1.7	inactive	50	inactive	170	Active	Active	Active	Active	inactive	inactive	> 10000	Dose-dependent effect	–	–	–	–	–	–
CC(C)[C@H](NC(=O)OCc1ccccc1)C(=O)N[C@@H](CCCNC(=N)N)C(=O)N1CCC[C@H]1C(=O)N[C@@H](CCCNC(=N)N)C(=O)CF	–	–	–	–	–	Active	–	Active	–	–	–	–	–	–	–	–	–	–	–
CC1=CC(C)=[N+]2C1=Cc1ccc(CCC(=O)N[C@@H](CC(C)C)C(=O)N[C@@H](CCCNC(=N)N)C(=O)N[C@@H](CO)C(=O)N[C@@H](CCCNC(=N)N)C(=O)COC(=O)c3c(C)cccc3C)n1[B-]2(F)F	2	inactive	–	Active	340	Active	Active	Active	Active	Active	Active	630	–	9.6	inactive	–	–	–	–
CC1=CC(C)=[N+]2C1=C(CCCc1cn(CCCCCC(=O)N[C@@H](CC(C)C)C(=O)N[C@H](C(=O)N[C@@H](CO)C(=O)N[C@@H](CCCNC(=N)N)C(=O)COC(=O)c3c(C)cccc3C)C(C)C)nn1)c1c(C)cc(C)n1[B-]2(F)F	1.1	inactive	–	Active	210	Active	Active	Active	Active	Active	Active	210	Dose-dependent effect	4.1	–	inactive	inactive	inactive	inactive
